Experimental findings from patent US20210276967A1 (OSPEDALE SAN RAFFAELE S.R.L., priority 2018, published 2021) are described below.

The test system of the test is HBV. Nature of the test: HBV inhibition in HepAD38 cells, extracellular HBV DNA by direct qPCR. Type of test: cell-based, hepatitis B virus. The text has this: HepAD38 cell line (Ladner et al., Antimicrob Agents Chemother, 1997, 41, 1715-20) was used for HBV inhibition assays. HepAD38 is a subclone, derived from hepatoblastoma cell line HepG2 (ATCC® Number: HB-8065™), that expresses HBV genome under the transcriptional control of a tetracycline-responsive promoter in a TET-OFF system: addition of tetracycline (TET) or doxycycline suppresses HBV replication, while its removal switches on the process allowing HBV viral particles release in the cell supernatant. HepAD38 cell line is maintained in DMEM/F12, supplemented with 10% of fetal bovine serum, 1% of glutamine, 1% of penicillin/streptomycin, 0.4 mg/ml G418 and 0.3 ug/ml tetracycline. For the HBV inhibition assay, doxycycline-free medium is used in order to allow virion production.
HBV inhibition activity in vitro was performed in 96 multiwell plates. During the initial (primary) screening compounds were first tested in triplicates at concentrations of 0.1 μM, 0.5 μM and 1 μM. For selected compounds, an 8-point dose-response curve was obtained using 1:2 serial dilutions (starting from 2.5 μM, 1.25 μM or 0.4 μM, depending on the degree of inhibition observed during the primary screening). From the dose-response curves, half maximal effective concentration (EC50) could be calculated (see also below).
In more detail, compounds—typically dissolved in DMSO stock solutions—were diluted to 2× the final desired concentration in 100 μl of the above medium (without doxycycline) and plated in three replicates in the 96-well plates.
Simultaneously, HepAD38 cells—extensively pre-washed in tetracycline-free medium in order to induce HBV production—were suspended at 2*10^4 cells in 100 μl of tetracycline-free medium and added to each well of the plate, to yield a final assay volume of 200 μl.
DMSO, used for stock solutions and compounds dilutions, is always present in the assays at a final concentration of 0.5%.
Plates were then incubated 96 hours at 37° C. and then subjected to cell viability assays and extracellular HBV quantification, in order to evaluate both the cytotoxic potential and the anti-viral activity of compounds.
Cytotoxicity was assessed by a commercial fluorescence assay that measures the metabolic activity of cells, directly related to cell viability (Cell Titer Blue, Promega). For each compound, cytotoxicity was evaluated at the same concentration employed to evaluate its anti-HBV activity. Anti-HBV activity was evaluated by quantification of extracellular HBV DNA with direct qPCR. In particular, supernatant was collected and centrifuged for cell debris clarification, viral DNA was extracted from virions by addition of lysis buffer (1 mM 1,4-dithiothreitol, 0.2% sodium dodecyl sulphate) and incubated at 95° C. for 10 min. Samples were then diluted 1:40 and real time PCR amplification was performed with SYBR green assay (Power SYBR™ Green PCR Master Mix-Thermo Fisher Scientific) and specific HBV primer (HBV-DF:5′-[…]-3′ (SEQ ID No. 1), HBV-DR:5′-[…]-3′ (SEQ ID No. 2)).
All HBV inhibition or antiviral activity data are typically reported in percent (%) relative to a non-treated reference sample. Excel and Graphpad Prism programs are typically used for data elaboration and EC50 calculation.
In general terms: In qPCR the cycle at which signal appears reflects the starting amount.

Setting [1] is: Hepatitis B virus, HepAD38, 96 hours, read-out: HBV inhibition % (conc μM).

As a reminder, the inhibition is the share of the control response that was lost under treatment. As for `C[C@@H](NS(=O)(=O)c1cc(C(=O)Nc2cc(F)c(F)c(F)c2)ccc1N)C(F)(F)F` [Example E18, (R)-4-amino-N-(3,4,5-trifluorophenyl)-3-(N-(1,1,1-trifluoropropan-2-yl)sulfamoyl)benzamide], the inhibition at 0.5 µM under setting [1] was over 50%.

As for `C[C@H](NS(=O)(=O)c1cc(C(=O)Nc2cc(F)c(F)c(F)c2)ccc1N)C(F)(F)F` [Example E19, (S)-4-amino-N-(3,4,5-trifluorophenyl)-3-(N-(1,1,1-trifluoropropan-2-yl)sulfamoyl)benzamide], the inhibition at 0.5 µM under setting [1] was over 50%.

Regarding `Nc1ccc(C(=O)Nc2cc(F)c(F)c(F)c2)cc1S(=O)(=O)NC1CC1` [Example E20, 4-amino-3-(N-cyclopropylsulfamoyl)-N-(3,4,5-trifluorophenyl)benzamide], under setting [1], the inhibition at 0.5 µM is over 50%.

A word on the EC50: it is the midpoint of the concentration-response curve. For the molecule `Nc1ccc(C(=O)Nc2cc(F)c(F)c(F)c2)cc1S(=O)(=O)N[C@H]1CC[C@H](O)CC1` [Example E21, trans-4-amino-3-(N-(4-hydroxycyclohexyl)sulfamoyl)-N-(3,4,5-trifluorophenyl)benzamide], under “Hepatitis B virus, HepAD38, 8-point dose-response, read-out: HBV inh EC50”, the half-maximal effective concentration (EC50) was under 1000 nM.

With `Nc1ccc(C(=O)Nc2cc(F)c(F)c(F)c2)cc1S(=O)(=O)N[C@H]1CC[C@@H](O)CC1` [Example E22, cis-4-amino-3-(N-(4-hydroxycyclohexyl)sulfamoyl)-N-(3,4,5-trifluorophenyl)benzamide], the inhibition at 0.5 µM under setting [1] was over 50%.

As for `Cc1cc(N)c(S(=O)(=O)N[C@H]2CC[C@H](O)CC2)cc1C(=O)Nc1cc(F)c(F)c(F)c1` [Example E23, trans-4-amino-5-(N-(4-hydroxycyclohexyl)sulfamoyl)-2-methyl-N-(3,4,5-trifluorophenyl)benzamide], the inhibition at 0.5 µM under setting [1] is over 50%.

On to `Nc1ccc(C(=O)Nc2cc(F)c(F)c(F)c2)cc1S(=O)(=O)N[C@H]1C[C@@H](O)C1` [Example E24], for which the inhibition at 0.5 µM under setting [1] was over 50%.

On to `Nc1ccc(C(=O)Nc2cc(F)c(F)c(F)c2)cc1S(=O)(=O)N[C@H]1C[C@H](O)C1` [Example E25], for which, under setting [1], the inhibition at 0.5 µM was over 50%.

Take `CC(C)(C)OC(=O)N1CCC(NS(=O)(=O)c2cc(C(=O)Nc3cc(F)c(F)c(F)c3)ccc2N)CC1` [Example E27, tert-butyl 4-((2-amino-5-((3,4,5-trifluorophenyl)carbamoyl)phenyl)sulfonamido)piperidine-1-carboxylate]: the inhibition at 0.5 µM under setting [1] is under 50%.

`Nc1ccc(C(=O)Nc2cc(F)c(F)c(F)c2)cc1S(=O)(=O)NC1CCNCC1` [Example E28, 4-amino-3-(N-(piperidin-4-yl)sulfamoyl)-N-(3,4,5-trifluorophenyl)benzamide]: under setting [1], the inhibition at 0.5 µM was under 50%.

Consider `Nc1ccc(C(=O)Nc2cc(F)c(F)c(F)c2)cc1S(=O)(=O)N1CCC(O)CC1` [Example E29, 4-amino-3-((4-hydroxypiperidin-1-yl)sulfonyl)-N-(3,4,5-trifluorophenyl)benzamide], for which the inhibition at 0.5 µM under setting [1] was over 50%.

Regarding `Nc1ccc(C(=O)Nc2cc(F)c(F)c(F)c2)cc1S(=O)(=O)Nc1ccncc1` [Example E31, 4-amino-3-(N-(pyridin-4-yl)sulfamoyl)-N-(3,4,5-trifluorophenyl)benzamide], under setting [1], the inhibition at 0.5 µM was under 50%.

On to `Nc1ccc(C(=O)Nc2cc(F)c(F)c(F)c2)cc1S(=O)(=O)NC1COC1` [Example E33, 4-amino-3-(N-(oxetan-3-yl)sulfamoyl)-N-(3,4,5-trifluorophenyl)benzamide], for which the inhibition at 0.5 µM under setting [1] was over 50%.

Regarding `CC(C)(C)OC(=O)N1CC[C@H](NS(=O)(=O)c2cc(C(=O)Nc3cc(F)c(F)c(F)c3)ccc2N)C1` [Example E34, tert-butyl (S)-3-((2-amino-5-((3,4,5-trifluorophenyl)carbamoyl)phenyl)sulfonamido)pyrrolidine-1-carboxylate], the inhibition at 0.5 µM under setting [1] was over 50%.

For `Nc1ccc(C(=O)Nc2cc(F)c(F)c(F)c2)cc1S(=O)(=O)N[C@H]1CCNC1` [Example E35, (S)-4-amino-3-(N-(pyrrolidin-3-yl)sulfamoyl)-N-(3,4,5-trifluorophenyl)benzamide], under setting [1], the inhibition at 0.5 µM was under 50%.

As to `Cc1cc(C(=O)Nc2cc(F)c(F)c(F)c2)cc(S(N)(=O)=O)c1N` [Example E36, 4-amino-3-methyl-5-sulfamoyl-N-(3,4,5-trifluorophenyl)benzamide], the inhibition at 0.5 µM under setting [1] is over 50%.

For `Nc1ncc(C(=O)Nc2cc(F)c(F)c(F)c2)cc1S(N)(=O)=O` [Example E37, 6-amino-5-sulfamoyl-N-(3,4,5-trifluorophenyl)nicotinamide], under setting [1], the inhibition at 0.5 µM was under 50%.

For the molecule `Nc1ccc(C(=O)Nc2cc(F)c(F)c(F)c2)cc1S(=O)(=O)NC1(CO)COC1` [Example E38, 4-amino-3-(N-(3-(hydroxymethyl)oxetan-3-yl)sulfamoyl)-N-(3,4,5-trifluorophenyl)benzamide], the inhibition at 0.5 µM under setting [1] was over 50%.

Consider `Nc1ccc(C(=O)Nc2cc(F)c(F)c(F)c2)cc1S(=O)(=O)NCC1(O)CCCCC1` [Example E39, 4-amino-3-(N-((1-hydroxycyclohexyl)methyl)sulfamoyl)-N-(3,4,5-trifluorophenyl)benzamide], for which, under setting [1], the inhibition at 0.5 µM is over 50%.

For the molecule `Cc1cc(NC(=O)c2cc(S(N)(=O)=O)c(N)cc2C)ccc1F` [Example E40, 4-amino-N-(4-fluoro-3-methylphenyl)-2-methyl-5-sulfamoylbenzamide], the “HBV inhibition % (conc μM)” value (concentration not given, HepAD38) is reported as “A (HBV inhibition greater than 50% at the concentration indicated in the table)”.

For the molecule `CC(NS(=O)(=O)c1cc(C(=O)Nc2cc(F)c(F)c(F)c2)ccc1N)c1ccccn1` (centres unmarked) [Example E42, 4-amino-3-(N-(1-(pyridin-2-yl)ethyl)sulfamoyl)-N-(3,4,5-trifluorophenyl)benzamide], under setting [1], the inhibition at 0.5 µM was under 50%.

Consider `Nc1ccc(C(=O)Nc2ccc(F)c(Cl)c2)cc1S(=O)(=O)N[C@H]1CC[C@H](O)CC1` [Example E43, trans-4-amino-N-(3-chloro-4-fluorophenyl)-3-(N-(4-hydroxycyclohexyl)sulfamoyl)benzamide], for which the inhibition at 0.5 µM under setting [1] is over 50%.

For the molecule `Nc1ccc(C(=O)Nc2ccc(F)c(C(F)F)c2)cc1S(=O)(=O)N[C@H]1CC[C@H](O)CC1` [Example E44, 4-amino-N-(3-(difluoromethyl)-4-fluorophenyl)-3-(N-((1r,4r)-4-hydroxycyclohexyl)sulfamoyl)benzamide], the inhibition at 0.5 µM under setting [1] is over 50%.

For `Cc1cc(NC(=O)c2ccc(N)c(S(=O)(=O)N[C@H]3CC[C@H](O)CC3)c2)ccc1F` [Example E46], the inhibition at 0.5 µM under setting [1] was over 50%.

Consider `Nc1ccc(C(=O)Nc2cc(F)c(F)c(F)c2)cc1S(=O)(=O)N[C@H]1CC[C@@H](O)C1` [Example E47, 4-amino-3-(N-((1S,3R)-3-hydroxycyclopentyl)sulfamoyl)-N-(3,4,5-trifluorophenyl)benzamide], for which the inhibition at 0.5 µM under setting [1] was over 50%.

Take `Nc1ccc(C(=O)Nc2cc(F)c(F)c(F)c2)cc1S(=O)(=O)NC(CO)CO` [Example E48, 4-amino-3-(N-(1,3-dihydroxypropan-2-yl)sulfamoyl)-N-(3,4,5-trifluorophenyl)benzamide]: the inhibition at 0.5 µM under setting [1] is under 50%.

On to `Nc1ccc(C(=O)Nc2cc(F)c(F)c(F)c2)cc1S(=O)(=O)N[C@@H]1CC[C@H](O)C1` [Example E49, 4-amino-3-(N-((1R,3S)-3-hydroxycyclopentyl)sulfamoyl)-N-(3,4,5-trifluorophenyl)benzamide], for which the inhibition at 0.5 µM under setting [1] is over 50%.

`Nc1ccc(C(=O)Nc2cc(F)c(F)c(F)c2)cc1S(=O)(=O)N1CCC(O)(CO)CC1` [Example E50, 4-amino-3-((4-hydroxy-4-(hydroxymethyl)piperidin-1-yl)sulfonyl)-N-(3,4,5-trifluorophenyl)benzamide]: the inhibition at 0.5 µM under setting [1] was over 50%.

For `CC(C)(C)OC(=O)N[C@@H]1CCC[C@@H]1NS(=O)(=O)c1cc(C(=O)Nc2cc(F)c(F)c(F)c2)ccc1N` [Example E51, tert-butyl ((1R,2S)-2-((2-amino-5-((3,4,5-trifluorophenyl)carbamoyl)phenyl)sulfonamido)cyclopentyl)carbamate], where the note is “Hepatitis B virus, 1 μM, HepAD38, 96 hours, read-out: HBV inhibition % (conc μM)”, the inhibition at 1 µM is over 50%.
